Measurements as given in US20240109903A1, “SUBSTITUTED HETEROCYCLES FOR TREATING CANCER” (Northwestern University, priority 2022, published 2024).
Read-outs that look alike come from different tables or passages of the source.

Key:
UO-31 = test: NCI 60 five-dose screen UO-31; assay type: cell-based; conditions: Homo sapiens; for CC50: read-out: LC50 (the source's name) (converted)
NCI-H226 = test: NCI 60 five-dose screen NCI-H226; assay type: cell-based; conditions: Homo sapiens; for CC50: read-out: LC50 (the source's name) (converted)
U251 = test: NCI 60 five-dose screen U251; assay type: cell-based; conditions: Homo sapiens
SK-MEL-28 = test: NCI 60 five-dose screen SK-MEL-28; assay type: cell-based; conditions: Homo sapiens; for CC50: read-out: LC50 (the source's name) (converted)
HCC-2998 = test: NCI 60 five-dose screen HCC-2998; assay type: cell-based; conditions: Homo sapiens; for CC50: read-out: LC50 (the source's name) (converted)
HOP-62 = test: NCI 60 five-dose screen HOP-62; assay type: cell-based; conditions: Homo sapiens; for CC50: read-out: LC50 (the source's name) (converted)
full NCI 60 cell panel = test: NCI 60 Cell One-dose screen; assay type: cell-based, human; conditions: single high dose 10^−5 M, NCI 60 panel
Excerpt: Compounds were submitted to the NCI 60 Cell screen and tested at a single high dose (10^−5 M) in the full NCI 60 cell panel (see the following reference for details of using NCI 60 human tumor cell lines for screening anticancer drugs: Shoemaker R H. The NCI60 human tumor cell line anticancer drug screen. Nature Rev Cancer 2006; 6: 813-23). The One-dose data is reported as a mean graph of the percent growth of treated cells. The number reported for the One-dose assay is growth relative to the no-drug control, and relative to the time zero number of cells. This allows detection of both growth inhibition (values between 0 and 100) and lethality (values less than 0). For example, a value of 100 means no growth inhibition. A value of 40 would mean 60% growth inhibition. A value of 0 means no net growth over the course of the experiment. A value of −40 would mean 40% lethality. A value of −100 means all cells are dead. FIGS. 1-8 show the mean graph of percent growth against the NCI-60 cell panel for NUCC-0226674, NUCC-0226679, NUCC-0226680, NUCC-0226683, NUCC-0226689, NUCC-0226694, NUCC-0226695, and NUCC-0226698.

MOLT-4 = test: NCI 60 five-dose screen MOLT-4; assay type: cell-based; conditions: Homo sapiens; for CC50: read-out: LC50 (the source's name)
COLO 205 = test: NCI 60 five-dose screen COLO 205; assay type: cell-based; conditions: Homo sapiens; for CC50: read-out: LC50 (the source's name) (converted)
A549/ATCC = test: NCI 60 five-dose screen A549/ATCC; assay type: cell-based; conditions: Homo sapiens; for CC50: read-out: LC50 (the source's name) (converted)
NCI-H460 = test: NCI 60 five-dose screen NCI-H460; assay type: cell-based; conditions: Homo sapiens; for CC50: read-out: LC50 (the source's name) (converted)
MDA-MB-231/ATCC = test: NCI 60 five-dose screen MDA-MB-231/ATCC; assay type: cell-based; conditions: Homo sapiens; for CC50: read-out: LC50 (the source's name) (converted)
LOX IMVI = test: NCI 60 five-dose screen LOX IMVI; assay type: cell-based; conditions: Homo sapiens; for CC50: read-out: LC50 (the source's name) (converted)
UACC-257 = test: NCI 60 five-dose screen UACC-257; assay type: cell-based; conditions: Homo sapiens; for CC50: read-out: LC50 (the source's name) (converted)
UACC-62 = test: NCI 60 five-dose screen UACC-62; assay type: cell-based; conditions: Homo sapiens; for CC50: read-out: LC50 (the source's name) (converted)
SNB-19 = test: NCI 60 five-dose screen SNB-19; assay type: cell-based; conditions: Homo sapiens; for CC50: read-out: LC50 (the source's name) (converted)
SN12C = test: NCI 60 five-dose screen SN12C; assay type: cell-based; conditions: Homo sapiens; for CC50: read-out: LC50 (the source's name) (converted)
RXF 393 = test: NCI 60 five-dose screen RXF 393; assay type: cell-based; conditions: Homo sapiens; for CC50: read-out: LC50 (the source's name) (converted)
IGROV1 = test: NCI 60 five-dose screen IGROV1; assay type: cell-based; conditions: Homo sapiens
SNB-75 = test: NCI 60 five-dose screen SNB-75; assay type: cell-based; conditions: Homo sapiens; for CC50: read-out: LC50 (the source's name) (converted)
SF-539 = test: NCI 60 five-dose screen SF-539; assay type: cell-based; conditions: Homo sapiens; for CC50: read-out: LC50 (the source's name) (converted)
786-0 = test: NCI 60 five-dose screen 786-0; assay type: cell-based; conditions: Homo sapiens; for CC50: read-out: LC50 (the source's name) (converted)

## FC(F)(F)c1cc2c(Cl)ncnc2n1CCN1CCOCC1 [NUCC-0226680]
UO-31; five-dose
  GI50: 2.51 µM
  IC50: 5.37 µM
  IC (TGI): 8.91 µM
  CC50: 37.2 µM
NCI-H226; five-dose
  GI50: 100 µM
  IC50: 100 µM
  IC (TGI): 100 µM
  CC50: ≥ 100 µM
U251; U-251, five-dose
  GI50: 14.8 µM
  IC50: 24 µM
  IC (TGI): 38.9 µM
U251; U-251, five-dose, read-out: LC50 (the source's name) (converted)
  CC50: ≥ 100 µM
SK-MEL-28; five-dose
  GI50: 13.5 µM
  IC50: 25.1 µM
  IC (TGI): 33.1 µM
  CC50: 79.4 µM
HCC-2998; five-dose
  GI50: 2240 nM
  IC50: 4.07 µM
  IC (TGI): 5.13 µM
  CC50: 15.8 µM
HOP-62; five-dose
  GI50: 38.9 µM
  IC50: 100 µM
  IC (TGI): 100 µM
  CC50: ≥ 100 µM
Full NCI 60 cell panel
  growth inhibition in the One-Dose Screen: significant growth inhibition
MOLT-4; five-dose
  GI50: 5.75 µM
  IC50: 10.7 µM
  IC (TGI): 28.8 µM
  CC50: ≥ 100 µM
COLO 205; five-dose
  GI50: 26.3 µM
  IC50: 58.9 µM
  IC (TGI): 100 µM
  CC50: ≥ 100 µM
A549/ATCC; five-dose
  GI50: 100 µM
  IC50: 100 µM
  IC (TGI): 100 µM
  CC50: ≥ 100 µM
NCI-H460; five-dose
  GI50: 23.4 µM
  IC50: 28.2 µM
  IC (TGI): 100 µM
  CC50: ≥ 100 µM
MDA-MB-231/ATCC; five-dose
  GI50: 4.37 µM
  IC50: 11.5 µM
  IC (TGI): 18.2 µM
  CC50: 53.7 µM
LOX IMVI; five-dose
  GI50: 1740 nM
  IC50: 3020 nM
  IC (TGI): 3.39 µM
  CC50: 6.61 µM
UACC-257; five-dose
  GI50: 10.5 µM
  IC50: 23.4 µM
  IC (TGI): 30.2 µM
  CC50: 87.1 µM
UACC-62; five-dose
  GI50: 10.7 µM
  IC50: 20.9 µM
  IC (TGI): 32.4 µM
  CC50: 97.7 µM
SNB-19; five-dose
  GI50: 15.5 µM
  IC50: 28.8 µM
  IC (TGI): 33.1 µM
  CC50: 70.8 µM
SN12C; five-dose
  GI50: 19.5 µM
  IC50: 38.9 µM
  IC (TGI): 100 µM
  CC50: ≥ 100 µM
RXF 393; five-dose
  GI50: 14.8 µM
  IC50: 42.7 µM
  IC (TGI): 40.7 µM
  CC50: ≥ 100 µM
IGROV1; IGROV-1, five-dose
  GI50: 2510 nM
  IC50: 3.98 µM
  IC (TGI): 7.59 µM
IGROV1; IGROV-1, five-dose, read-out: LC50 (the source's name) (converted)
  CC50: 35.5 µM
SNB-75; five-dose
  GI50: 10.2 µM
  IC50: 23.4 µM
  IC (TGI): 22.4 µM
  CC50: 49 µM
SF-539; five-dose
  GI50: 18.2 µM
  IC50: 33.9 µM
  IC (TGI): 42.7 µM
  CC50: 97.7 µM
786-0; five-dose
  GI50: 37.2 µM
  IC50: 61.7 µM
  IC (TGI): 100 µM
  CC50: ≥ 100 µM

## COc1cc(Cn2c(C(F)(F)F)cc3c(Cl)ncnc32)ccn1 [NUCC-0226694]
UO-31
  GI50: 8.71 µM
  IC50: 18.2 µM
  IC (TGI): 24 µM
  CC50: 61.7 µM
NCI-H226
  GI50: 15.5 µM
  IC50: 33.1 µM
  IC (TGI): 32.4 µM
  CC50: 67.6 µM
U251; U-251
  GI50: 15.1 µM
  IC50: 26.9 µM
  IC (TGI): 28.8 µM
U251; U-251, read-out: LC50 (the source's name) (converted)
  CC50: 56.2 µM
SK-MEL-28
  GI50: 4.57 µM
  IC50: 10 µM
  IC (TGI): 16.2 µM
  CC50: 40.7 µM
HCC-2998
  GI50: 1780 nM
  IC50: 3.16 µM
  IC (TGI): 3.24 µM
  CC50: 6.03 µM
HOP-62
  GI50: 14.5 µM
  IC50: 27.5 µM
  IC (TGI): 29.5 µM
  CC50: 61.7 µM
Full NCI 60 cell panel
  growth inhibition in the One-Dose Screen: significant growth inhibition
MOLT-4
  GI50: 3.31 µM
  IC50: 4.57 µM
  IC (TGI): 100 µM
  CC50: ≥ 100 µM
COLO 205
  GI50: 15.1 µM
  IC50: 26.3 µM
  IC (TGI): 46.8 µM
  CC50: ≥ 100 µM
A549/ATCC
  GI50: 16.6 µM
  IC50: 27.5 µM
  IC (TGI): 38 µM
  CC50: 89.1 µM
NCI-H460
  GI50: 2.69 µM
  IC50: 3.31 µM
  IC (TGI): 8.13 µM
  CC50: 34.7 µM
MDA-MB-231/ATCC
  GI50: 3.31 µM
  IC50: 7.94 µM
  IC (TGI): 12.6 µM
  CC50: 42.7 µM
LOX IMVI
  GI50: 1660 nM
  IC50: 2880 nM
  IC (TGI): 3.16 µM
  CC50: 6.03 µM
UACC-257
  GI50: 8.51 µM
  IC50: 19.5 µM
  IC (TGI): 21.9 µM
  CC50: 49 µM
UACC-62
  GI50: 8.13 µM
  IC50: 15.8 µM
  IC (TGI): 20.4 µM
  CC50: 45.7 µM
SNB-19
  GI50: 11.7 µM
  IC50: 21.4 µM
  IC (TGI): 24 µM
  CC50: 49 µM
SN12C
  GI50: 9.12 µM
  IC50: 15.5 µM
  IC (TGI): 21.4 µM
  CC50: 46.8 µM
RXF 393
  GI50: 7.94 µM
  IC50: 24.5 µM
  IC (TGI): 22.4 µM
  CC50: 55 µM
IGROV1; IGROV-1
  GI50: 1780 nM
  IC50: 3.16 µM
  IC (TGI): 3.63 µM
IGROV1; IGROV-1, read-out: LC50 (the source's name) (converted)
  CC50: 7.41 µM
SNB-75
  GI50: 1.78 µM
  IC50: 6.61 µM
  IC (TGI): 7.24 µM
  CC50: 27.5 µM
SF-539
  GI50: 13.8 µM
  IC50: 24.5 µM
  IC (TGI): 26.9 µM
  CC50: 51.3 µM
786-0
  GI50: 10.7 µM
  IC50: 17 µM
  IC (TGI): 25.7 µM
  CC50: 63.1 µM
